Data on one molecule can be found in US11293927B2, “Screening methods for PARP modulators” (Ribon Therapeutics, Inc., priority 2018, dated 2022).

pIC50: −log10 of the molar value.

The target of one test is T1, PARP14 (Homo sapiens, UniProt Q460N5).
T1 sequence (Q460N5 1611-1801): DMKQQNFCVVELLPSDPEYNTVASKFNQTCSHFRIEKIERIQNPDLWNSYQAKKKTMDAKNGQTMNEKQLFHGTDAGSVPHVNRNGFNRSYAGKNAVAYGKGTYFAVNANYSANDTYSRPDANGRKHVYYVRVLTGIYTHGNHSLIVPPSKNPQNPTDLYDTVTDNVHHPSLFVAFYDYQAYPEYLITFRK
Description: NanoBRET probe displacement assay (Probe A) in live 293T cells, PARP14. The test is classed as cell-based. Particulars: NanoBRET displacement of Probe A, NanoLuc-tagged PARP14 in live 293T cells. As for the experimental part: MonoPARP genes from Table 5 were cloned into the pcDNA3.1-mammalian expression vector as a NanoLuc fusion with NanoLuc on the N- or C-terminus as indicated. The sequence of the NanoLuc tag is as follows: [table] Displacement of a fluorescently-labeled compound Probe A binding to NanoLuc-tagged monoPARP enzymes was measured in live cells using a bioluminescence resonance energy transfer (NanoBRET) assay. TIPARP, PARP10, PARP12 or PARP14 fused to a NanoLuc tag were overexpressed in 293T cells (ATCC) using the plasmids described herein. Plasmid DNA and empty vector DNA were added to phenol red free OptiMEM (Thermo Fisher) as shown in Table 6 in a total volume of 2.456 mL. 157 μL of Fugene HD (Promega) was added to the DNA mixture and allowed to incubate 5 min at 25° C. [table] Next, 2.375 mL of the plasmid-Fugene mixture were added to 20 million 293T cells in DMEM (Thermo Fisher) supplemented with 10% FBS (VWR). The transfection was incubated for 24 h at 37° C. in an incubator containing air supplemented with 5% CO2. The cells were resuspended in phenol red free OptiMEM media. 40 μL of cells were then added to white polystyrene 384-well non-binding surface microplate (Corning). […] Filtered luminescence was measured on an Envision (Perkin Elmer) equipped with a dual 585 nm mirror, 460±40 nm bandpass filter (donor) and 610±50 nm longpass filter (acceptor). […]
A general note: Bioluminescence resonance energy transfer reports proximity on the nanometre scale.

A further test deals with T2, TIPARP (Homo sapiens, UniProt Q7Z3E1).
T2 construct: made in house; host or cells: E. coli
T2 sequence (Q7Z3E1 456-657): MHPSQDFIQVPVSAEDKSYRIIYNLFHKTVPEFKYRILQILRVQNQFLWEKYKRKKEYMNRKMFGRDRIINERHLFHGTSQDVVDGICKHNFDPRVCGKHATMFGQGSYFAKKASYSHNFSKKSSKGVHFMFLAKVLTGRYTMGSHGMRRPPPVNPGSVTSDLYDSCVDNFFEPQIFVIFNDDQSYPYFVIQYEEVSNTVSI
Description: In vitro TR-FRET probe displacement assay (Probe C), TIPARP. Conditions: TR-FRET displacement of Probe C, TIPARP residues 456-657. The format is binding. As for the experimental part:
A portion of TIPARP (residues 456 to 657 of NP_056323.2 (SEQ ID NO: 1), GenBank Accession No. NM_015508.4) was overexpressed in E. coli cells. An N-terminal fusion tag, […] (SEQ ID NO: 7), was used to purify the protein from cell lysates. The fusion tag was left on the protein for use in the probe displacement assay.
Displacement of a Probe C binding to monoPARP active sites was measured using a time-resolved fluorescence resonance energy transfer (TR-FRET) assay. 20 nL of a dose response curve of each test compound was spotted in black 384-well polystyrene proxiplates (Perkin Elmer) using a Mosquito (TTP Labtech). Reactions were performed in an 8 μL volume by adding 6 μL of the monoPARP and Probe C in assay buffer (20 mM HEPES pH=8, 100 mM NaCl, 0.1% bovine serum albumin, 2 mM DTT and 0.002% Tween20), incubating with test compound at 25° C. for 30 min, then adding 2 μL of ULight-anti 6×His and LANCE Eu-W 1024 labeled streptavidin (Perkin Elmer). Binding reactions were equilibrated at 25° C. for an additional 30 min, then read on an Envision platereader equipped with a LANCE/DELFIA top mirror (Perkin Elmer) using excitation of 320 nm and emission of 615 nm and […] with a 90 μs delay. The ratio of the 665/615 nm emission were calculated for each well to determine the amount of complex of monoPARP and Probe C in each well. […]
In general terms: In TR-FRET formats the signal depends on donor and acceptor labels being close together.

For `O=c1[nH]ncc(N2Cc3ccc(OC4CCNCC4)cc3C2)c1C(F)(F)F` [Compound A, 5-[5-(Piperidin-4-yloxy)-2,3-dihydro-1H-isoindol-2-yl]-4-(trifluoromethyl)-2,3-dihydropyridazin-3-one], the pIC50 at PARP14 is 7.52; at TIPARP it was 8.15.

In general, pIC50 refers to −log10 of the IC50, conventionally taken in molar units. The low end stands for a high IC50, the high end for a low IC50.
